Each structure is given as a SMILES string. Structures can show the parent of a compound that is named as a salt.

In this assay the target is T1, hiNOS (Homo sapiens, UniProt P35228).
T1 construct: expressed in transfected cells; host or cells: HEK293
In words: DAN assay, hiNOS expressed in transiently transfected HEK293 cells. Format: cell-based. As to conditions: HEK293 cells transiently transfected with hiNOS. From the text: The source of nitric oxide synthase (NOS) enzyme can be generated in several ways including induction of endogenous iNOS using cytokines and/or lipopolysaccharide (LPS) in various cell types known in the art. Alternatively, the gene encoding the enzyme can be cloned and the enzyme can be generated in cells via heterologous expression from a transient or stable expression plasmid with suitable features for protein expression as are known in the art. Enzymatic activity (nitric oxide production) is calcium independent for iNOS, while the constitutive NOS isoforms, nNOS and eNOS, become active with the addition of various cofactors added to cellular media or extract as are well known in the art. Enzymes specified in Table 1 were expressed in HEK293 cells transiently transfected with the indicated NOS isoform.
A major metabolic pathway for nitric oxide is to nitrate and nitrite, which are stable metabolites within tissue culture, tissue, plasma, and urine (S Moncada, A Higgs, N Eng J Med 329, 2002 (1993)).
The level of nitrate or nitrite in the specimen can be quantified by any method known in the art which provides adequate sensitivity and reproducibility. A variety of protocols have also been described for detecting and quantifying nitrite and nitrate levels in biological fluids by ion chromatography (e.g., S A Everett et al., J. Chromatogr. 706, 437 (1995); J M Monaghan et al., J. Chromatogr. 770, 143 (1997)), high-performance liquid chromatography (e.g., M Kelm et al., Cardiovasc. Res. 41, 765 (1999)), and capillary electrophoresis (M A Friedberg et al., J. Chromatogr. 781, 491 (1997)). For example, 2,3-diaminonaphthalene reacts with the nitrosonium cation that forms spontaneously from NO to form the fluorescent product […]. Using 2,3-diaminonaphthalene (“DAN”), researchers have developed a rapid, quantitative fluorometric assay that can detect from 10 nM to 10 μM nitrite and is compatible with a multi-well microplate format. […] DAN reacts with nitrite ion and gives fluorescent […] (M C Carré et al., Analysis 27, 835-838 (1999)). Table 1 provides the test results of various compounds of the subject invention using the DAN assay.
A specimen can be processed prior to determination of nitrate or nitrite as required by the quantification method, or in order to improve the results, or for the convenience of the investigator. For example, processing can involve centrifuging, filtering, or homogenizing the sample. If the sample is whole blood, the blood can be centrifuged to remove cells and the nitrate or nitrite assay performed on the plasma or serum fraction. If the sample is tissue, the tissue can be dispersed or homogenized by any method known in the art prior to determination of nitrate or nitrite. It may be preferable to remove cells and other debris by centrifugation or another method and to determine the nitrate or nitrite level using only the fluid portion of the sample, or the extracellular fluid fraction of the sample. The sample can also be preserved for later determination, for example by freezing of urine or plasma samples. When appropriate, additives may be introduced into the specimen to preserve or improve its characteristics for use in the nitrate or nitrite assay.
The “level” of nitrate, nitrite, or other NO-related product usually refers to the concentration (in moles per liter, micromoles per liter, or other suitable units) of nitrate or nitrite in the specimen, or in the fluid portion of the specimen. However, other units of measure can also be used to express the level of nitrate or nitrite. For example, an absolute amount (in micrograms, milligrams, nanomoles, moles, or other suitable units) can be used, particularly if the amount refers back to a constant amount (e.g., grams, kilograms, milliliters, liters, or other suitable units) of the specimens under consideration. A number of commercially available kits can be used.
As for `CN(CCCNCc1ccc2[nH]ccc2c1)c1nc(-n2ccnc2)ns1` [Example 18, N-(3-Imidazol-1-yl-[1,2,4]thiadiazol-5-yl)-N′-(1H-indol-5-ylmethyl)-N-methyl-propane-1,3-diamine], the EC50 was greater than 50000 nM.
Consider `Cc1cc(C(C)(C)CNC(=O)CCc2ccc3c(c2)OCO3)nc(-n2ccnc2)n1` [Example 143, 3-Benzo[1,3]dioxol-5-yl-N-[2-(2-imidazol-1-yl-6-methyl-pyrimidin-4-yl)-2-methyl-propyl]-propionamide], for which the EC50 is less than 1000 nM.
The figure for `Cc1cc(CNC(=O)C2CCCN2Cc2ccco2)nc(-n2ccnc2)n1` (centres unmarked) [Example 118, 1-Furan-2-ylmethyl-pyrrolidine-2-carboxylic acid (2-imidazol-1-yl-6-methyl-pyrimidin-4-ylmethyl)-amide] is greater than 50000 nM.
In the case of `Cc1cc(CNS(=O)(=O)NCCc2ccc3c(c2)OCO3)nc(-n2ccnc2)n1` [Example 71] it was less than 50000 nM.
In the case of `CNC(=O)C1CCN(CCNCc2ccc3c(c2)OCO3)C1c1cc(C)nc(-n2ccnc2)n1` (centres unmarked) [Example 137, 2-(2-(1H-Imidazol-1-yl)-6-methylpyrimidin-4-yl)-1-(2-(benzo[d][1,3]dioxol-5-ylmethylamino)ethyl)-N-methylpyrrolidine-3-carboxamide] it was less than 1000 nM.
For `CN(CCCN(C)c1nc(-n2ccnc2)ns1)Cc1ccc2c(c1)OCO2` [Example 79, N-Benzo[1,3]dioxol-5-ylmethyl-N′-(3-imidazol-1-yl-[1,2,4]thiadiazol-5-yl)-N,N′-dimethyl-propane-1,3-diamine], the concentration giving a half-maximal response (EC50) was less than 1000 nM.
The figure for `Cc1cc(C(C)(C)C(=O)NCCNCc2ccc3c(c2)OCO3)nc(-n2ccnc2)n1` [Example 66, N-{2-[(Benzo[1,3]dioxol-5-ylmethyl)-amino]-ethyl}-2-(2-imidazol-1-yl-6-methyl-pyrimidin-4-yl)-isobutyramide] is less than 1000 nM.
In the case of `Cn1cnc(CN(CCCNCc2ccc3c(c2)OCO3)c2nc(-n3ccnc3)ns2)c1` [Example 106, N′-Benzo[1,3]dioxol-5-ylmethyl-N-(3-imidazol-1-yl-[1,2,4]thiadiazol-5-yl)-N-(1-methyl-1H-imidazol-4-ylmethyl)-propane-1,3-diamine] it was less than 1000 nM; in that of `CN(C)C(=O)CN(CCCNCc1ccc2c(c1)OCO2)c1nc(-n2ccnc2)ns1` [Example 57, 2-[{3-[(Benzo[1,3]dioxol-5-ylmethyl)-amino]-propyl}-(3-imidazol-1-yl-[1,2,4]thiadiazol-5-yl)-amino]-N,N-dimethyl-acetamide], less than 1000 nM.
In the case of `CN(CCc1ccc2c(c1)OCO2)CCN(C)c1nc(-n2ccnc2)ns1` [Example 128, N-(2-Benzo[1,3]dioxol-5-yl-ethyl)-N′-(3-imidazol-1-yl-[1,2,4]thiadiazol-5-yl)-N,N′-dimethyl-ethane-1,2-diamine] it was less than 1000 nM; in that of `Cc1cc(C(C)N2CCC[C@@H]2C(=O)NCc2ccc3c(c2)OCO3)nc(-n2ccnc2)n1` (mixture of isomers) [Example 121, 1-[1-(2-Imidazol-1-yl-6-methyl-pyrimidin-4-yl)-ethyl]-pyrrolidine-2-carboxylic acid (benzo[1,3]dioxol-5-ylmethyl)-amide], less than 1000 nM; in that of `Cc1cc(CNC(=O)C2CCCN2Cc2ccc(F)c(F)c2)nc(-n2ccnc2)n1` (centres unmarked) [Example 112, 1-(3,4-Difluoro-benzyl)-pyrrolidine-2-carboxylic acid (2-imidazol-1-yl-6-methyl-pyrimidin-4-ylmethyl)-amide], greater than 50000 nM.
For the compound `O=C(NCCc1ccc2c(c1)OCCO2)[C@H]1C[C@@H](O)CN1c1nc(-n2ccnc2)ns1` [Example 123, (2R,4R)-4-Hydroxy-1-(3-imidazol-1-yl-[1,2,4]thiadiazol-5-yl)-pyrrolidine-2-carboxylic acid [2-(2,3-dihydro-benzo[1,4]dioxin-6-yl)-ethyl]-amide], the half-maximal effective concentration (EC50) was less than 1000 nM.
The figure for `CC(C)[C@@H](Nc1nc(-n2ccnc2)ns1)C(=O)NCCc1ccc2c(c1)OCO2` [Example 122, (R)—N-(2-Benzo[1,3]dioxol-5-yl-ethyl)-2-(3-imidazol-1-yl-[1,2,4]thiadiazol-5-ylamino)-3-methyl-butyramide] is less than 1000 nM; for `O=C(NCCc1ccc2c(c1)OCO2)[C@H]1CCCCN1c1nc(-n2ccnc2)ns1` [Example 26, (R)-1-(3-Imidazol-1-yl-[1,2,4]thiadiazol-5-yl)-piperidine-2-carboxylic acid (2-benzo[1,3]dioxol-5-yl-ethyl)-amide] it is less than 1000 nM.
The figure for `CN(CCCN(C)c1nc(-n2ccnc2)ns1)CCc1ccc2c(c1)OCCO2` [Example 86, N-[2-(2,3-Dihydro-benzo[1,4]dioxin-6-yl)-ethyl]-N′-(3-imidazol-1-yl-[1,2,4]thiadiazol-5-yl)-N,N′-dimethyl-propane-1,3-diamine] is less than 1000 nM; for `c1cn(-c2nsc(N(CCCNCc3ccc4c(c3)OCO4)C3CC3)n2)cn1` [Example 32, N′-Benzo[1,3]dioxol-5-ylmethyl-N-cyclopropyl-N-(3-imidazol-1-yl-[1,2,4]thiadiazol-5-yl)-propane-1,3-diamine] it is less than 1000 nM; for `CC(C)[C@H](Nc1nc(-n2ccnc2)ns1)C(=O)NCCc1ccc2c(c1)OCO2` [Example 24, (S)—N-(2-Benzo[1,3]dioxol-5-yl-ethyl)-2-(3-imidazol-1-yl-[1,2,4]thiadiazol-5-ylamino)-3-methyl-butyramide] it is less than 1000 nM.
In the case of `CN(CCCN(C)c1nc(-n2ccnc2)ns1)Cc1ccc2c(c1)OCCO2` [Example 82, N-(2,3-Dihydro-benzo[1,4]dioxin-6-ylmethyl)-N′-(3-imidazol-1-yl-[1,2,4]thiadiazol-5-yl)-N,N′-dimethyl-propane-1,3-diamine] it was less than 1000 nM; in that of `CN(CCCNCc1cccs1)c1nc(-n2ccnc2)ns1` [Example 20, N-(3-Imidazol-1-yl-[1,2,4]thiadiazol-5-yl)-N-methyl-N′-thiophen-2-ylmethyl-propane-1,3-diamine], greater than 50000 nM; in that of `CN(CCCNCc1cc2ccccc2n1C)c1nc(-n2ccnc2)ns1` [Example 19, N-(3-Imidazol-1-yl-[1,2,4]thiadiazol-5-yl)-N-methyl-N′-(1-methyl-1H-indol-2-ylmethyl)-propane-1,3-diamine], greater than 50000 nM.
`CNC(=O)CC(NCCNCc1ccc2c(c1)OCO2)c1cc(C)nc(-n2ccnc2)n1` (centres unmarked) [Example 136, Benzo[1,3]dioxol-5-ylmethyl-{2-[1-(2-imidazol-1-yl-6-methyl-pyrimidin-4-yl)-2-methylcarbamoyl-ethylamino]-ethyl}-ammonium trifluoroacetate] displayed an EC50 of less than 1000 nM.
The figure for `CN(CCCNS(=O)(=O)c1ccc(OC(F)(F)F)cc1)c1nc(-n2ccnc2)ns1` [Example 34, N-{3-[(3-Imidazol-1-yl-[1,2,4]thiadiazol-5-yl)-methyl-amino]-propyl}-4-trifluoromethoxy-benzenesulfonamide] is greater than 50000 nM.
The figure for `Cc1cc(C(C)(C)C(=O)NCCCc2ccc3c(c2)OCO3)nc(-n2ccnc2)n1` [Example 72, 2-(2-(1H-imidazol-1-yl)-6-methylpyrimidin-4-yl)-N-(3-(benzo[d][1,3]dioxol-5-yl)propyl)-2-methylpropanamide] is less than 50000 nM.
The figure for `CCOC(=O)CC(NCCNCc1ccc2c(c1)OCO2)c1cc(C)nc(-n2ccnc2)n1` (centres unmarked) [Example 135, Benzo[1,3]dioxol-5-ylmethyl-{2-[2-ethoxycarbonyl-1-(2-imidazol-1-yl-6-methyl-pyrimidin-4-yl)-ethylamino]-ethyl}-ammonium trifluoroacetate] is less than 1000 nM; for `CCOC(=O)CN(Cc1cc(C)nc(-n2ccnc2)n1)C(=O)NCCc1ccc2c(c1)OCO2` [Example 69, [3-(2-Benzo[1,3]dioxol-5-yl-ethyl)-1-(2-imidazol-1-yl-6-methyl-pyrimidin-4-ylmethyl)-ureido]-acetic acid ethyl ester] it is less than 1000 nM.

As usually defined, the EC50 is the concentration that produces a half-maximal response. Low values mean greater potency, high ones weaker potency.

Values taken from US7825256B2, “Inducible nitric oxide synthase dimerization inhibitors” (Kalypsys, Inc., priority 2004, dated 2010).
